Results published in US7258882B2, “System for maintaining fresh quality and safe food attributes of minimally processed produce” (priority 2002, dated 2007).

Tested on: total aerobic population
Test: Total aerobic plate count of washed, packaged and stored mushrooms
Source text: Mushrooms were either 1) untreated (unwashed), that is, left as picked; 2) sodium metabisulfite (sulfite treated) washed. Mushrooms were water rinsed with tap water for 2 seconds then processed through 2 consecutive dip tanks containing 500 ppm sodium metabisulfite in solution; or 3) Washed using the herein disclosed process (new wash) specifically as follows: Mushrooms were conveyed on a slotted conveyor belt and sprayed with tap water for 2 seconds. They dropped into a series of two dip tanks containing 3% (w/v) sodium erythorbate, 0.15% (w/v) disodium EDTA, 0.15% (w/v) calcium chloride. Total residence time was 30 seconds. The whole mushrooms were then treated by dipping in water containing 2 ppm ozone (15 second exposure) followed immediately by 10 second exposure to ultraviolet lamp. Half of the mushroom were sliced and again exposed to 10 seconds of ultraviolet lamp. The mushrooms were packaged and stored at either 35, 45 or 55 degrees Fahrenheit and analyzed microbiologically at day 0, 3, 6, and 9 for total aerobic plate count with a sensitivity of 1,000 cfu/gram, and day 3,6 and 9 for organoleptic properties including degree of whiteness, amount of veil opening, and overall salability/quality. Storage at 45 and 55 degrees Fahrenheit represent physiologically stressful conditions and will illustrate benefits of treatments to a greater extent than 35 degree F. storage. For all examples, data was analyzed statistically using single factor ANOVA and Student's T-test preparing two groups and assuming equal variances. All data was analyzed at 95% confidence levels. Mushrooms were either 1) Mushrooms were washed with water (2-3 second drench with tap water) then processed through 2 consecutive dip tanks containing an aqueous solution of 500 ppm sodium metabisulfite (sulfite treated); or 2) Washed using the herein disclosed process (new wash) specifically as follows: Mushrooms were conveyed on a slotted conveyor belt and sprayed with tap water for […]. They dropped into a series of two dip tanks containing 3% (w/v) sodium erythorbate, 0.15% (w/v) disodium EDTA, 0.15% (w/v) calcium chloride. Total residence time was 30 seconds. The whole mushrooms were then treated with 2 ppm ozone spray followed by 10 second exposure to ultraviolet lamp. Half of the mushroom were sliced and again exposed to 10 seconds of ultraviolet lamp. The mushrooms were packaged and stored at either 35, 45 or 55 degrees Fahrenheit. 35 degree F. stored samples were analyzed at day 0, 2, 6, and 9 and 14 for total aerobic plate count. Both 35 and 45 degree F. stored samples were analyzed on day 2, 6, 9 and 14 for organoleptic properties including degree of whiteness, amount of veil opening, and overall salability/quality. Storage at 45 degrees Fahrenheit represent physiologically stressful conditions and will illustrate benefits of treatments to a greater extent than 35 degree F. storage. Mushrooms were either 1) untreated (unwashed), that is, left as picked; 2)sodium metabisulfite (sulfite treated) washed. Mushrooms were water rinsed with tap water for 5 seconds then processed through 2 consecutive dip tanks containing 500 ppm sodium metabisulfite; or 3)Washed using the herein disclosed process (new wash) specifically as follows: Mushrooms were conveyed on a slotted conveyor belt and sprayed with tap water for 2 seconds. They dropped into a series of two dip tanks containing 3% (w/v) sodium erythorbate, 0.3% (w/v) sodium chloride, 0.3% (w/v) calcium chloride. Total residence time was 30 seconds. In the third treatment (new wash 1) the whole mushrooms were then treated with 2 ppm ozone spray followed immediately by 10 second exposure to ultraviolet lamp. New wash 2 mushrooms were treated as described above but was treated only with ozone, no ultraviolet light. New wash 3 mushrooms were treated with 7 seconds of ultraviolet light, no ozone. New wash 4 mushrooms were treated with ozone and ultraviolet light simultaneously. […]

O=S([O-])S(=O)(=O)[O-].[Na+].[Na+] [sulfite treated, sodium metabisulfite]
Total plate count (Experiment 1, 35 degrees Fahrenheit, sliced, Day 0): 178,805 cfu/g
Total plate count (Experiment 1, 35 degrees Fahrenheit, sliced, Day 3): 12,344,021 cfu/g
Total plate count (Experiment 1, 35 degrees Fahrenheit, sliced, Day 6): 31345339 cfu/g
Total plate count (Experiment 1, 35 degrees Fahrenheit, sliced, Day 9): 383205051 cfu/g
Total plate count (Experiment 1, 35 degrees Fahrenheit, whole, Day 0): 299,999 cfu/g
Total plate count (Experiment 1, 35 degrees Fahrenheit, whole, Day 3): 3,849,234 cfu/g
Total plate count (Experiment 1, 35 degrees Fahrenheit, whole, Day 6): 20709887 cfu/g
Total plate count (Experiment 1, 35 degrees Fahrenheit, whole, Day 9): 31562526 cfu/g
Total plate count (Experiment 1, 45 degrees Fahrenheit, sliced, Day 3): 69,673,049 cfu/g
Total plate count (Experiment 1, 45 degrees Fahrenheit, whole, Day 3): 216,318,555 cfu/g
Total plate count (Experiment 1, 55 degrees Fahrenheit, sliced, Day 3): 381,362,639 cfu/g
Total plate count (Experiment 1, 55 degrees Fahrenheit, whole, Day 3): 145,637,959 cfu/g
Total plate count (Experiment 2, 35 degrees Fahrenheit, sliced, Day 0): 168,922 cfu/g
Total plate count (Experiment 2, 35 degrees Fahrenheit, sliced, Day 2): 736,188 cfu/g
Total plate count (Experiment 2, 35 degrees Fahrenheit, sliced, Day 6): 6,101,012 cfu/g
Total plate count (Experiment 2, 35 degrees Fahrenheit, sliced, Day 9): 7,976,377 cfu/g
Total plate count (Experiment 2, 35 degrees Fahrenheit, sliced, Day 14): 702,413,006 cfu/g
Total plate count (Experiment 2, 35 degrees Fahrenheit, whole, Day 0): 24,188 cfu/g
Total plate count (Experiment 2, 35 degrees Fahrenheit, whole, Day 2): 59,492 cfu/g
Total plate count (Experiment 2, 35 degrees Fahrenheit, whole, Day 6): 428,579 cfu/g
Total plate count (Experiment 2, 35 degrees Fahrenheit, whole, Day 9): 734,285 cfu/g
Total plate count (Experiment 2, 35 degrees Fahrenheit, whole, Day 14): 253,940,711 cfu/g
Total Plate Count Sliced (Experiment 3, sliced, within 18 hours of processing): 918,987 cfu/gram
Total Plate Count Whole (Experiment 3, whole, within 18 hours of processing): 352,745 cfu/gram
